Assay results: ChEMBL document CHEMBL1777789, “The square conformation of phenylglycine-incorporated ascidiacyclamide is stabilized by CH/π interactions between amino acid side chains” (2011)
≈ marks a conversion by molar mass, not a printed value.

Assays:
[1] = test system: HL-60; test: Cytotoxicity against human HL60 cells after 72 hrs by MTT assay; assay type: functional; conditions: HL-60, 72 h, read-out: ED50
[2] = test system: P388; test: Cytotoxicity against mouse P388 cells after 72 hrs by MTT assay; assay type: functional; conditions: P388, 72 h, read-out: ED50

| SMILES | EC50 [1] [µg/mL] | EC50 [2] [µg/mL] |
| --- | --- | --- |
| CC[C@H](C)[C@@H]1NC(=O)c2csc(n2)[C@@H](C(C)C)NC(=O)[C@H]2N=C(O[C@@H]2C)[C@H](c2ccccc2)NC(=O)c2csc(n2)[C@@H](C(C)C)NC(=O)[C@H]2N=C1O[C@@H]2C | 12.8 (≈ 16.5 µM) | 12.4 (≈ 16 µM) |
| CC[C@H](C)[C@@H]1NC(=O)c2csc(n2)[C@@H](C(C)C)NC(=O)[C@H]2N=C(O[C@@H]2C)[C@H]([C@@H](C)CC)NC(=O)c2csc(n2)[C@@H](C(C)C)NC(=O)[C@H]2N=C1O[C@@H]2C [ASCIDIACYCLAMIDE] | 33.5 (≈ 44.3 µM) | 10.5 (≈ 13.9 µM) |
